Results on two compounds are retold here after patent US5057613A, “Novel thione dopamine beta hydroxylase inhibitors” (Merrell Dow Pharmaceuticals, priority 1987, dated 1991).

pIC50: −log10 of the molar value.

As a reminder, the pIC50 is the IC50 on a negative log10 scale, so that one unit is a factor of ten. A low value points to a high IC50.

Assay [1] has as its target T1, dopamine beta-hydroxylase (DBH) (Bos taurus, UniProt P15101).
T1 sequence (P15101 1-610): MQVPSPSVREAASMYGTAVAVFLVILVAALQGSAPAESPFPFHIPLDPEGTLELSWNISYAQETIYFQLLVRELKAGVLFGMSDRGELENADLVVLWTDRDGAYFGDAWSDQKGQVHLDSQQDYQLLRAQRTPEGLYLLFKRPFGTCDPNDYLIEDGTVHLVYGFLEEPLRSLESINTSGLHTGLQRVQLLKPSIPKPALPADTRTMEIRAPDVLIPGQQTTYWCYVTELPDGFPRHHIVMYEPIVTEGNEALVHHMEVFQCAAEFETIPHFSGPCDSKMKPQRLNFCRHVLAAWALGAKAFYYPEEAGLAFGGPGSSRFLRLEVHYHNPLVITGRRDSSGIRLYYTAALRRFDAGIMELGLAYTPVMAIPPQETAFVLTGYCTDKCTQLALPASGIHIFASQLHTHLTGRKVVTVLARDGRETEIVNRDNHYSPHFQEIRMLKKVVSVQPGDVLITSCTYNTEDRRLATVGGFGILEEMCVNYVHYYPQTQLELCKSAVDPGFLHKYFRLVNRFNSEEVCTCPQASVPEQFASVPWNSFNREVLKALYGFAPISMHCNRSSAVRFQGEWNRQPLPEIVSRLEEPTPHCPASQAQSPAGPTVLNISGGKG
The experiment in a line: in vitro inhibition of dopamine beta-hydroxylase (conversion of tyramine to octopamine, oxygen uptake by polarographic electrode). The format is biochemical. To be noted: pH 5, 20-40° C, preferably 37° C. As for the experimental part:
The DBH inhibitory compounds of this invention can readily be determined in vitro by standard and well known procedures for assaying conversion of tyramine to octopamine in the presence of dopamine beta-hydroxylase (DBH). Enzymatic oxygenation by DBH is determined in aqueous solution in the presence of molecular oxygen, an electron donor such as ascorbate, and the necessary cofactors for the enzyme at pH of 5 and a temperature of 20°-40° C., preferably 37° C. The test compound is added at the desired concentration, and the system is incubated. Activity is determined by measuring the oxygen uptake using a polarographic electrode and an oxygen monitor by the method of S. May, et al., J. Biol. Chem. 256, 2258 (1981). Inhibition is given in molar concentration of compound at which DBH activity was halved (IC50) when the test compounds were tested according to the above described procedure. The IC50 (expressed in micromolar units) data of some of the compounds of this invention are expressed in Table I.

The subject of the next assay is DBH. The experiment in a line: in vivo DBH inhibition, heart dopamine level in spontaneously hypertensive rats. The conditions noted are these: 50 mg/kg, IP, 6 hours post dose in SHR's; Control 0.015 ± .002; p < .001. As for the experimental part: The compounds of this invention may also be tested for their in vivo DBH inhibiting property according to the procedure of Felice, Felice and Kessinger, J. Neurochem., 31, 1461-1465 (1978) wherein the effects on peripheral dopamine and norepinephrine levels are determined. In this test spontaneously hypertensive rats are dosed (i.p.) at 50 mg per kilogram of body weight and sacrificed six hours later. Average results, expressed in micrograms of dopamine (DA) per gram of heart tissue are determined with the difference between the control and the treated rats being the in vivo (DBH) inhibitory effect of the test compound.

Assay [2] deals with spontaneously hypertensive rats (SHR's). The experiment in a line: in vivo antihypertensive effect, blood pressure in spontaneously hypertensive rats. To be noted: 50 mg/kg, IP, Mean Difference ± Standard Deviation. On the procedure:
The ability of the compounds of this invention to lower blood pressure can be determined in vivo using spontaneously hypertensive rats (SHR's) according to standard and well known procedures. The test compound is administered intraperitoneally (ip) to rats and the blood pressure monitored continuously. Since DBH is a major enzyme in the synthetic pathway of the catecholamines, it would be expected that the presence of an inhibitor would act to decrease the amount of catecholamines produced, and thereby have an antihypertensive effect. The results of the testing for this antihypertensive effect are shown in Table I (MBP is mean blood pressure).

For the compound `S=c1[nH]ccn1CCc1cccs1` [Compound 1, 1,3-Dihydro-1-[2-(2-thienyl)ethyl]-2H-imidazole-2-thione], the negative-log IC50 (pIC50) in assay [1] was 6.92. Besides, the “Heart DA (dopamine per gram of heart tissue), treated” value in the assay on DBH was 0.038 ± .003 µg/g. In addition, the “Max Change MBP (mean blood pressure)” value in assay [2] is -45 ± 17 mmHg.
Compound `Sc1nccn1CCCc1cccs1` [Compound 2, 1,3-Dihydro-1-[3-(2-thienyl)propyl]-2H-imidazole-2-thione] showed a pIC50 in assay [1] of 5.73.
